Non-standard residues stand in square brackets, D forms with d. Residues, ends and D or L forms follow the SMILES beside them. Nva = CCC[C@H](N)C(=O)O; βAla = NCCC(=O)O
Legend:
[1] = system: MCF-7 breast cancer cells
Protocol: The MCF-7 breast cancer cell line was obtained from ATCC (Manassas, Va.) and routinely grown in DMEM:F12 plus 5% calf serum (Cellgro Mediatech, Manassas, Va.) at 37° C., 5% CO2. For screening experiments, MCF-7 cells were plated in 24-well plates at the concentration of 30,000 cells/well. After 12 h of culture in the growth medium, the cells were synchronized in serum-free medium (SFM) (DMEM:F12 supplemented with 0.42 g/mL bovine serum albumin, 1 mM FeSO4 and 2 mM L-glutamine) for 24 h and then shifted back to the full growth medium containing either gAd (Phoenix Secretomics, Burlingame, Calif.) at 50 ng/mL, individual peptides, or no test compounds for 24 h. At conclusion of proliferation assays, the cells were counted under the microscope with trypan-blue exclusion. Each experiment was performed in triplicate and repeated at least three times.

LN18 glioblastoma cells = assay: Cell growth experiments, cell counting; assay type: cell-based
Protocol: (§1) Biological activity of the peptides was first assessed using MCF-7 breast cancer cells that express AdipoR1. Arditi J D, Venihaki M, Karalis K P, Chrousos G P Horm Metab Res 2007, 39(1):9-13. The MCF-7 breast cancer cell line was obtained from ATCC (Manassas, Va.) and routinely grown in DMEM:F12 plus 5% calf serum (Cellgro Mediatech, Manassas, Va.) at 37° C., 5% CO2. For screening experiments, MCF-7 cells were plated in 24-well plates at the concentration of 30,000 cells/well. After 12 h of culture in the growth medium, the cells were synchronized in serum-free medium (SFM) (DMEM:F12 supplemented with […] bovine serum albumin, 1 mM FeSO4 and 2 mM L-glutamine) for 24 h and then shifted back to the full growth medium containing either gAd (Phoenix Secretomics, Burlingame, Calif.) at 50 ng/mL, individual peptides, or no test compounds for 24 h. At conclusion of proliferation assays, the cells were counted under the microscope with trypan-blue exclusion. Each experiment was performed in triplicate and repeated at least three times. ADP 25-β-AlaNH2, ADP 91-β-AlaNH2, ADP 157-β-AlaNH2, ADP 223-β-AlaNH2, ADP 289-β-AlaNH2 and ADP 355-β-AlaNH2 were solubilized at 65° C. for 30 min and were further purified by RP-HPLC and screened together with the individually synthesized adiponectin peptides at the exact concentration of 50 ng/mL.
(§2) The effects of the selected peptide ADP 355-NH2 on cell proliferation were tested in breast cancer cell lines (MCF-7, MDA-MB-231) and in glioblastoma cells (LN18), all obtained from ATCC and routinely cultured as described previously. Otvos L, Jr., et al. European J Cancer 2011, 47(10):1578-1584. Riolfi M, et al. Brain Pathol 2010, 20(2):481-489. Bartucci M, et al. Cancer Res 2001, 61(18):6747-6754. The peptide was tested at 10 pM-100 μM concentrations under conditions described above under peptide screening.

[2] = system: MDA-MB-231 breast cancer cells; assay: Cell growth experiments, cell counting; assay type: cell-based; details: MDA-MB-231 cells
Protocol: as §1, §2

AMPK = assay: Signaling analysis by Western blot: AMPK phosphorylation; assay type: cell-based
Protocol: (§3) The analysis was done using MCF-7 and MDA-MB-231 breast cancer cells and in LN18 glioblastoma cells. The cells at 70-80% confluence were shifted to SFM for 24 h, then SFM was removed, the cultures were washed 2× with PBS, placed in normal growth medium for 1 h, and then treated with ADP 355-NH2 at 100 nM (MCF-7 cells) or 10 μM (MDA-MB-231 and LN 18 cells) concentration for 0-60 min, while gAd at 50 ng/mL was applied for 60 min only. Untreated cells were used as negative control. After the treatment, cells were lysed as previously described and 100 μg of proteins were analyzed by Western blot for the expression of phosphorylated (p) and total forms of several signaling molecules. Bartella V, et al. Cancer Res 2008, 68(12):4919-4927. Garofalo C, et al. Clin Cancer Res 2004, 10(10):6466-6475. The following primary antibodies (Abs) from Cell Signaling (Danvers, Mass.) were used: 1) pAMPK alpha (T172) D79.5E rabbit mAb 1: 750; 2) total AMPK alpha antibody rabbit mAb 1:1000 in; 3) p44/42 MAPK (T202/Y204) rabbit mAb 1:1000; 4) total 44/42 MAP kinase antibody rabbit mAb 1:1000; 5) pStat3 (Y705) D3A7 rabbit mAb 1: 500; 6) total Stat3 79D7 rabbit mAb 1:2000; 7) pAkt (Ser 473) rabbit mAb 1:1000; 8) total Akt rabbit mAb 1:1000; 9) AdipoR1 rabbit purified anti-serum 1:500 (Phoenix Secretomics). Protein loading was verified by evaluating the expression of either a constitutive enzyme glyceraldehyde-3-phosphate dehydrogenase (GAPDH) using 6C51 mAbs 1:1000 (Santa Cruz Biotechnology, CA, USA) or alpha-actin using the actin I-19 goat polyclonal Ab (Santa Cruz) 1: 200. The following secondary Abs (Santa Cruz) were used 1) donkey anti-goat IgG-HRP; 2) goat anti-mouse IgG-HRP; 3) goat anti-rabbit IgG-HRP, all applied at 1:1000 dilution.

ERK1/2 = assay: Signaling analysis by Western blot: ERK1/2 phosphorylation; assay type: cell-based
Protocol: as §3, with “Protein loading was verified by evaluating the expression of either a constitutive enzyme glyceraldehyde-3-phosphate dehydrogenase (GAPDH) using 6C51 mAbs 1:1000 (Santa Cruz Biotechnology, CA, USA) or alpha-actin using the actin I-19 goat polyclonal Ab (Santa Cruz) 1: 200. The following secondary Abs (Santa Cruz) were used 1) donkey anti-goat IgG-HRP; 2) goat anti-mouse IgG-HRP; 3) goat anti-rabbit IgG-HRP, all applied at 1:1000 dilution.” left out

Akt = assay: Signaling analysis by Western blot: Akt; assay type: cell-based
Protocol: as §3

STAT3 = assay: Signaling analysis by Western blot: STAT3 phosphorylation; assay type: cell-based; details: for STAT3 phosphorylation: 10 μM
Protocol: as §3

[3] = Peptide stability in mouse serum; assay type: in vitro ADME; details: 25% aqueous mouse serum, calculated from degradation rate in 25% aqueous serum, 37° C., data not shown
Protocol: (§4) Sixty μg of ADP 355-NH2 were dissolved in 100 μL water, and 10 μL aliquots were mixed with 100 μL of freshly drawn mouse blood. After 30 min of incubation at 37° C. the cells were centrifuged at 10,000×g. Fifty μL serum was mixed with 50 μL phosphate buffered saline pH 6.8 (PBS), and the serum proteins were precipitated by addition of 45 μL aqueous 15% trichloroacetic acid (TCA) for 10 min at 4° C. After centrifugation at 12,000×g the supernatant was neutralized with 0.1 M aqueous sodium hydroxide and 0.5 μL of this solution was mixed with 0.5 μL α-cyano-4-hydroxycinnamic acid (4 mg/mL in 60% aqueous acetonitrile containing 0.1% TFA) as matrix on a sample plate. Analysis was performed on a MALDI time-of-flight tandem mass spectrometer (MALDITOF/TOF-MS, 4700 proteomic analyzer, Applied Biosystems, Weiterstadt, Germany). Additionally, the neutralized supernatant was loaded on a Jupiter C18 RP-HPLC column (4.6 mm internal diameter, 150 mm length, 5 μm particle size, 30 nm pore size; Phenomenex) that had previously been calibrated with known amounts of peptide ADP 355-NH2 dissolved in PBS. Absorbance was measured at 214 nm. Peptide ADP 355-NH2 was incubated at 37° C. with 25% aqueous mouse serum at a final concentration of 150 μg/mL. After 0, 15, 30, 60, 120, and 240 min 95 μL aliquots were mixed with 25 μL 15% aqueous TCA and were incubated for 10 min at 4° C. […]

[4] = Peptide stability in whole mouse blood; assay type: in vitro ADME; details: after 30 min at 37° C., mass spectroscopy
Protocol: as §4

female CBA/J mice = assay: In vivo toxicity, bolus ip; details: for Kidney weight / Kidney weight relative to total weight (%) / Liver weight / Liver weight relative to total weight (%) / Spleen weight: day 5
From the text: On day 5 the mice were killed by CO2 inhalation and the potential peptide elimination organs, the livers, spleens and kidneys were removed and weighed.

[5] = LN 18 cells, compared with 1 μM
[6] = MDA-MB-231 cells, 10 μM, 0-60 min
[7] = four days after ip administration, vs untreated

CC[C@H](C)[C@H](NC(=O)[C@@H](N)CC(N)=O)C(=O)N1CCC[C@H]1C(=O)NCC(=O)N[C@@H](CC(C)C)C(=O)N[C@@H](Cc1ccc(O)cc1)C(=O)N[C@@H](Cc1ccc(O)cc1)C(=O)N[C@@H](Cc1ccccc1)C(=O)N[C@@H](C)C(=O)N[C@@H](Cc1ccc(O)cc1)C(=O)NCCC(N)=O [ADP 25-β-AlaNH2, Asn-Ile-Pro-Gly-Leu-Tyr-Tyr-Phe-Ala-Tyr-β-AlaNH2] (H-NIPGLYYFAY[βAla]-NH2; N-terminus assumed)
biological activity in cancer cell growth inhibition assays ([1]; 50 ng/mL): fully active
Cytostatic Activity of Original Peptide vs. gAd (% Increase) ([1]; MCF-7 cells, 50 ng/mL, relative to 50 ng/mL gAd (baseline)): 11%

CCC[C@H](NC(=O)[C@@H]1CCCN1C(=O)[C@@H](NC(=O)[C@H](N)CC(N)=O)[C@@H](C)CC)C(=O)N[C@@H](CC(C)C)C(=O)N[C@@H](Cc1ccc(O)cc1)C(=O)N[C@H](CO)C(=O)N[C@@H](Cc1ccccc1)C(=O)N[C@@H](C)C(=O)N[C@H](CO)C(N)=O [ADP 355-NH2, D-Asn-Ile-Pro-Nva-Leu-Tyr-D-Ser-Phe-Ala-D-Ser-NH2] (H-[dN]IP[Nva]LY[dS]FA[dS]-NH2)
cytostatic effect at maximal effective doses compared with gAd at 50 ng/mL (LN18 glioblastoma cells; LN18 cells): greater cytostatic effects
effect on normal cell growth (LN18 glioblastoma cells; LN18 cells, 10 pM-100 μM): restricted normal cell growth in a dose-dependent manner
growth inhibition at 10 μM (LN18 glioblastoma cells; [5]): further activity increase
growth inhibition at 100 μM (LN18 glioblastoma cells; [5]): less inhibitory
cytostatic effect at maximal effective doses compared with gAd at 50 ng/mL [2]: greater cytostatic effects
effect on normal cell growth ([2]; 10 pM-100 μM): restricted normal cell growth in a dose-dependent manner
growth inhibition at 10 μM ([2]; compared with 1 μM): further activity increase
growth inhibition at 100 μM ([2]; compared with 1 μM): less inhibitory
AMPK modulation (AMPK; LN18 cells, 10 μM, 0-60 min): did not modulate
phosphorylation of AMPK (AMPK; MCF-7 cells, 100 nM, at 15 and 30 min): increased
AMPK activation (AMPK; [6]): did not affect
ERK1/2 phosphorylation (ERK1/2; MCF-7 cells, 100 nM, at 60 min): decreased
ERK1/2 pathway (ERK1/2; MDA-MB-231 cells, 10 μM, at 30 and 60 min): significantly inhibited
total and phosphorylated levels of Akt (Akt; LN18 cells, 10 μM, at 15-60 min): down-regulated
activation of Akt (Akt; MCF-7 cells, 100 nM, 0-60 min): did not affect
Akt activation (Akt; [6]): did not affect
STAT3 phosphorylation (STAT3; LN18 cells, at 15-60 min): decreased
phosphorylation of STAT3 (STAT3; MCF-7 cells, 100 nM, at 15-60 min): increased
STAT3 phosphorylation (STAT3; MDA-MB-231 cells, at 15 and 30 min): transiently increased
half-life at 150 μg/mL [3]: 1.25 h
stability in whole mouse blood [4]: without noticeable degradation
concentration up to which the growth inhibitory activity was maintained ([1]; MCF-7 cells): up to 10 μM
cytostatic effect at maximal effective doses compared with gAd at 50 ng/mL ([1]; MCF-7 cells): greater cytostatic effects
peptide concentration at which the best growth inhibition was achieved ([1]; MCF-7 cells): 100 nM
effect on normal cell growth ([1]; MCF-7 cells, 10 pM-100 μM): restricted normal cell growth in a dose-dependent manner
growth inhibition at 10 pM-10 nM ([1]; MCF-7 cells, compared with 100 nM): less effective
Kidney weight (female CBA/J mice; 5 mg/kg bolus ip): 0.30 g
Kidney weight relative to total weight (%) (female CBA/J mice; 5 mg/kg bolus ip): 1.6%
Liver weight (female CBA/J mice; 5 mg/kg bolus ip): 1.02 g
Liver weight relative to total weight (%) (female CBA/J mice; 5 mg/kg bolus ip): 5.4%
Spleen weight (female CBA/J mice; 5 mg/kg bolus ip): 0.07 g
Kidney weight (female CBA/J mice; 10 mg/kg bolus ip): 0.29 g
Kidney weight relative to total weight (%) (female CBA/J mice; 10 mg/kg bolus ip): 1.6%
Liver weight (female CBA/J mice; 10 mg/kg bolus ip): 1.09 g
Liver weight relative to total weight (%) (female CBA/J mice; 10 mg/kg bolus ip): 5.9%
Spleen weight (female CBA/J mice; 10 mg/kg bolus ip): 0.06 g
Kidney weight (female CBA/J mice; 25 mg/kg bolus ip): 0.35 g
Kidney weight relative to total weight (%) (female CBA/J mice; 25 mg/kg bolus ip): 1.7%
Liver weight (female CBA/J mice; 25 mg/kg bolus ip): 1.24 g
Liver weight relative to total weight (%) (female CBA/J mice; 25 mg/kg bolus ip): 5.9%
Spleen weight (female CBA/J mice; 25 mg/kg bolus ip): 0.07 g
Kidney weight (female CBA/J mice; 50 mg/kg bolus ip): 0.31 g
Kidney weight relative to total weight (%) (female CBA/J mice; 50 mg/kg bolus ip): 1.7%
Liver weight (female CBA/J mice; 50 mg/kg bolus ip): 1.07 g
Liver weight relative to total weight (%) (female CBA/J mice; 50 mg/kg bolus ip): 6.2%
Spleen weight (female CBA/J mice; 50 mg/kg bolus ip): 0.07 g
spleen size compared with untreated control mice (female CBA/J mice; four days after ip administration): identical in size
increase of kidney size relative to total body weight (female CBA/J mice; [7]): 2%
increase of liver size relative to total body weight (female CBA/J mice; [7]): 8%
signs of systemic toxicity (tremor, head tilt, reduced activity, squinting) (female CBA/J mice; up to 50 mg/kg ip bolus, observed for 4 days): no signs of systemic toxicity

From patent US9073965B2, “Adiponectin receptor agonists and methods of use” (TEMPLE UNIVERSITY—OF THE COMMONWEALTH SYSTEM OF HIGHER …, priority 2011, dated 2015)
